The record followed here is US10961238B2, “Modulators of hedgehog (Hh) signaling pathway” (E-THERAPEUTICS PLC, priority 2016, dated 2021).

Structures are written as SMILES.

For the first assay, the system named is C3H10T1/2 cells. The assay is described as follows: C3H assay: differentiation of C3H10T1/2 cells by mSHH, measurement of alkaline phosphatase. Format: cell-based, mouse. To be noted: C3H10T1/2 cells stimulated with mSHH for 72 hours; alkaline phosphatase activity; read-out: IC50 Ranges.
Take `CC(C)(C)OC(=O)N1CCC(S(=O)(=O)N2CC=C(c3n[nH]c4ncccc34)CC2)CC1` [Compound 229, tert-butyl 4-[[4-(1H-pyrazolo[3,4-b]pyridin-3-yl)-3,6-dihydro-2H-pyridin-1-yl]sulfonyl] piperidine-1-carboxylate]: the IC50 (in general, the concentration that inhibits the measured activity by half) lay within 1000 to 10000 nM.

Staying with this assay, now noted: Mus musculus, C3H 10T1/2, 72 h, read-out: IC50 Ranges.
Consider `C[C@@H]1CN(C(=O)N2CC(S(=O)(=O)N3CCC(c4c[nH]c5ncccc45)CC3)C2)C[C@H](C)O1` [Compound 170], for which the IC50 lay within 10 to 100 nM.

Still in this assay, the particulars now being: Mus musculus, C3H 10T1/2; C3H10T1/2 cells stimulated with mSHH for 72 hours; alkaline phosphatase activity; read-out: IC50 Ranges.
As to `O=S(=O)(C1CN(Cc2ccccc2OC(F)F)C1)N1CCC(c2ccccc2)CC1` [Compound 353, 1-[1-[[2-(difluoromethoxy)phenyl]methyl]azetidin-3-yl]sulfonyl-4-phenylpiperidine], the IC50 lay in the range of 1000 to 10000 nM.

Consider `Cc1noc(C)c1CC(=O)N1CC(S(=O)(=O)N2CCC(c3c[nH]c4ncccc34)CC2)C1` [Compound 63, 2-(3,5-dimethyl-1,2-oxazol-4-yl)-1-[3-[4-(1H-pyrrolo[2,3-b]pyridin-3-yl)piperidin-1-yl]sulfonylaze-tidin-1-yl]ethanone], for which the IC50 lay within 10 to 100 nM. On the same count and under the same terms, the result for `COC(=O)c1csc(N2CC(S(=O)(=O)N3CCC(c4c[nH]c5ncccc45)CC3)C2)n1` [Compound 241, methyl 2-[3-[4-(1H-pyrrolo[2,3-b]pyridin-3-yl)piperidin-1-yl]sulfonylaze-tidin-1-yl]-1,3-thiazole-4-carboxylate] reads 100 to 1000 nM; that for `O=C(CC(O)(C(F)(F)F)C(F)(F)F)N1CC(S(=O)(=O)N2CCC(c3c[nH]c4cccnc34)CC2)C1` [Compound 379, 4,4,4-trifluoro-3-hydroxy-1-[3-[4-(1H-pyrrolo[3,2-b]pyridin-3-yl)piperidin-1-yl]sulfonylaze-tidin-1-yl]-3-(trifluoromethyl) butan-1-one], 10 to 100 nM; that for `CC(C)(C)OC(=O)N1CCC(S(=O)(=O)N2CC=C(c3csc4cccnc34)CC2)CC1` [Compound 230, tert-butyl 4-[(4-thieno[3,2-b]pyridin-3-yl-3,6-dihydro-2H-pyridin-1-yl)sulfonyl]pip eridine-1-carboxylate], 100 to 1000 nM. Same read-out and setting: the same measure for `Cc1noc(C)c1NC(=O)[C@H]1C[C@@H](S(=O)(=O)N2CCC(c3c[nH]c4ncccc34)CC2)C1` [Compound 309, cis-N-(3,5-dimethyl-1,2-oxazol-4-yl)-3-[4-(1H-pyrrolo [2,3-b]pyridin-3-yl)piperidin-1-yl]sulfonylcycl obutane-1-carboxamide]: 10 to 100 nM; for `O=S(=O)(C1CN(c2nc(-c3ccccc3)cs2)C1)N1CCC(c2c[nH]c3ncccc23)CC1` [Compound 311, 4-phenyl-2-[3-[4-(1H-pyrrolo[2,3-b]pyridin-3-yl)piperidin-1-yl]sulfonylazetidin-1-yl]-1,3-thiazole]: 10 to 100 nM. Consider `CC(C)(C)OC(=O)N1CC(S(=O)(=O)N2CCC(c3c[nH]c4ncc(C(F)(F)F)cc34)CC2)C1` [Compound 121, tert-butyl 3-[4-[5-(trifluoromethyl)-1H-pyrrolo[2,3-b]pyridin-3-yl]piperidin-1-yl]sulfonylaze-tidine-1-carboxylate], for which the IC50 was in the range of 1000 to 10000 nM. As for `COc1ccccc1OC(=O)N1CC(S(=O)(=O)N2CCC(c3ccncc3)CC2)C1` [Compound 27, (2-methoxyphenyl) 3-(4-pyridin-4-ylpiperidin-1-yl)sulfonylaze-tidine-1-carboxylate], the IC50 lay in the range of 10 to 100 nM.

For `CC(C)(C)OC(=O)N1CC(S(=O)(=O)N2CCC(c3nc4ccccc4[nH]3)CC2)C1` [Compound 299, tert-butyl 3-[4-(1H-benzimidazol-2-yl)piperidin-1-yl]sulfonylaze-tidine-1-carboxylate], the IC50 was in the range of 1000 to 10000 nM. Same read-out and setting: the result for `CC(C)(C)OC(=O)N1CC(S(=O)(=O)N2CCC(c3c[nH]c4cnccc34)CC2)C1` [Compound 339, tert-butyl 3-[4-(1H-pyrrolo[2,3-c]pyridin-3-yl)piperidin-1-yl]sulfonylaze-tidine-1-carboxylate] reads 1000 to 10000 nM; that for `O=C(NCc1cccs1)N1CC(S(=O)(=O)N2CCC(c3c[nH]c4ncccc34)CC2)C1` [Compound 85, 3-[4-(1H-pyrrolo[2,3-b]pyridin-3-yl)piperidin-1-yl]sulfonyl-N-(thiophen-2-ylmethyl)azetidine-1-carboxamide], 10 to 100 nM; that for `N#Cc1ccc(C2CCN(S(=O)(=O)C3CN(C(=O)NC4(C(F)(F)F)CC4)C3)CC2)cc1` [Compound 331, 3-[4-(4-cyanophenyl)piperidin-1-yl]sulfonyl-N-[1 (trifluoromethyl)cyclopropyl] azetidine-1-carboxamide], 10 to 100 nM. Same read-out and setting: the result for `CC(C)(C)OC(=O)N1CC(S(=O)(=O)N2CC=C(c3coc4cccnc34)CC2)C1` [Compound 231, tert-butyl 3-[(4-furo[3,2-b]pyridin-3-yl-3,6-dihydro-2H-pyridin-1-yl)sulfonyl]aze tidine-1-carboxylate] reads 100 to 1000 nM; that for `Cc1ccc(-n2cc(C3CCN(S(=O)(=O)C4CNC4)CC3)c3cccnc32)nc1` [Compound 267, 3-[1-(azetidin-3-ylsulfonyl)piper-idin-4-yl]-1-(5-methylpyridin-2-yl)pyrrolo [2,3-b]pyridine], 1000 to 10000 nM; that for `O=S(=O)(C1CN(c2ncccc2CO)C1)N1CCC(c2ccncc2)CC1` [Compound 259, [2-[3-(4-pyridin-4-ylpiperidin-1-yl)sulfonylaze-tidin-1-yl]pyridin-3-yl]methanol], 1000 to 10000 nM. The same measure, in the same setting: the result for `CN1CCC[C@H]1C(=O)N1CC(S(=O)(=O)N2CCC(c3coc4cccnc34)CC2)C1` [Compound 407, [3-(4-furo[3,2-b]pyridin-3-ylpiperidin-1-yl)sulfonylazetidin-1-yl]-[(2S)-methylpyrroli-din-2-yl]methanone] reads 100 to 1000 nM; that for `Cc1noc(C)c1NC(=O)N1CC(S(=O)(=O)N2CCC(c3cnc4c(c3)CCO4)CC2)C1` [Compound 36, 3-[4-(2,3-dihydrofuro[2,3-b]pyridin-5-yl)piperidin-1-yl]sulfonyl-N-(3,5-dimethyl-1,2-oxazol-4-yl)azetidine-1-carboxamide], 1000 to 10000 nM; that for `O=S(=O)(C1CN(Cc2ccc[nH]2)C1)N1CCC(c2c[nH]c3ncccc23)CC1` [Compound 69, 3-[1-[1-(1H-pyrrol-2-ylmethyl)azetidin-3-yl]sulfonylpiper-idin-4-yl]-1H-pyrrolo[2,3-b]pyridine], 100 to 1000 nM.

Consider `CC(C)C(CO)NC(=O)N1CC(S(=O)(=O)N2CCC(c3ccc(C#N)cc3)CC2)C1` (racemic) [Compound 348, 3-[4-(4-cyanophenyl)piperidin-1-yl]sulfonyl-N-[1-hydroxy-3-methylbutan-2-yl]azetidine-1-carboxamide], for which the IC50 is 100 to 1000 nM. For `O=C(OCC1CCC1)N1CC(S(=O)(=O)N2CCC(c3c[nH]c4ncccc34)CC2)C1` [Compound 201, cyclobutylmethyl 3-[4-(1H-pyrrolo[2,3-b]pyridin-3-yl)piperidin-1-yl]sulfonylaze-tidine-1-carboxylate], the IC50 lay in the range of 10 to 100 nM.

As for `O=S(=O)(C1CCNC1)N1CCC(c2c[nH]c3ncccc23)CC1` (racemic) [Compound 249, 3-[1-(pyrrolidin-3-yl)sulfonylpiper-idin-4-yl]-1H-pyrrolo[2,3-b]pyridine], the IC50 fell in the range of 1000 to 10000 nM. On the same count and under the same terms, the result for `Cc1ccc(S(=O)(=O)n2ccc3c(C4CCN(S(=O)(=O)C5CCN(C(=O)OC(C)(C)C)CC5)CC4)ncnc32)cc1` [Compound 12, tert-butyl 4-[4-[7-(4-methylphenyl)-sulfonylpyrrolo[2,3-d]pyrimidin-4-yl]piperidin-1-yl]sulfonylpiper-idine-1-carboxylate] reads 100 to 1000 nM; that for `CC(C)(C)OC(=O)N1CCC(S(=O)(=O)N2CC=C(c3ncnc4[nH]ccc34)CC2)CC1` [Compound 238, tert-butyl 4-[[4-(7H-pyrrolo[2,3-d]pyrimidin-4-yl)-3,6-dihydro-2H-pyridin-1-yl]sulfonyl] piperidine-l-carboxylate], 1000 to 10000 nM; that for `CC(C)(C)NC(=O)N1CCC(S(=O)(=O)N2CCC(c3ccncc3)CC2)CC1` [Compound 111, N-tert-butyl-4-(4-pyridin-4-ylpiperidin-1-yl)sulfonylpiper-idine-1-carboxamide], 100 to 1000 nM. For the compound `COc1ccc(C2CCN(S(=O)(=O)C3CCN(C(=O)OC(C)(C)C)CC3)CC2)cc1` [Compound 13, tert-butyl 4-[4-(4-methoxyphenyl)piperidin-1-yl]sulfonylpiper-idine-1-carboxylate], the IC50 is 100 to 1000 nM. With `CC(C)(C)C(=O)CN1CC(S(=O)(=O)N2CCC(c3ccc(C#N)cc3)CC2)C1` [Compound 378, 4-[1-[1-(3,3-dimethyl-2-oxobutyl)azetidin-3-yl]sulfonylpiperidin-4-yl]benzonitrile], the IC50 was in the range of 100 to 1000 nM. Same read-out and setting: the same measure for `CC(C)(C)OC(=O)N1CCC(S(=O)(=O)N2CCC(c3csc4cccnc34)CC2)CC1` [Compound 18, tert-butyl 4-(4-thieno[3,2-b]pyridin-3-ylpiperidin-1-yl)sulfonylpiper-idine-1-carboxylate]: 10 to 100 nM; for `Cc1cc(F)ccc1NC(=O)N1CC(S(=O)(=O)N2CCC(c3coc4cccnc34)CC2)C1` [Compound 392, N-(4-fluoro-2-methylphenyl)-3-(4-furo[3,2-b]pyridin-3-ylpiperidin-1-yl)sulfonylaze-tidine-1-carboxamide]: 10 to 100 nM. On to `Cn1ccc(CNC(=O)N2CC(S(=O)(=O)N3CCC(c4c[nH]c5ncccc45)CC3)C2)n1` [Compound 81, N-[(1-Methylpyrazol-3-yl)methyl]-3-[[4-(1H-pyrrolo[2,3-b]pyridin-3-yl)-1-piperidyl]sulfonyl]azetidine-1-carboxamide], for which the IC50 lay in the range of 100 to 1000 nM. Still for that read-out and setting: the result for `CC(C)(C)OC(=O)N1CCC(S(=O)(=O)N2CCC(c3c[nH]c4ncccc34)CC2)CC1` [Compound 19, tert-butyl 4-[4-(1H-pyrrolo[2,3-b]pyridin-3-yl)piperidin-1-yl]sulfonylpiper-idine-1-carboxylate] reads 10 to 100 nM.
